Test results from patent US20190315806A1, “POLYMYXIN DERIVATIVE, PREPARATION METHOD AND APPLICATION THEREOF” (priority 2016, published 2019).
≈ marks a conversion by molar mass, not a printed value. Where a SMILES comes first, the peptide text is derived from it. Bridges are numbered along the chain shown (N, C = ends). [ ]: non-standard residue; d: D form. The star is where a group is joined. Heptanoyl(6-Me) = CC(C)CCCCC(=O)*; Octanoyl(7-Me) = CC(C)CCCCCC(=O)*; X2 = CC[C@H](C)CCCCC(=O)*; Heptanoyl = CCCCCCC(=O)*; Dab = NCC[C@H](N)C(=O)O; Nva = CCC[C@H](N)C(=O)O

How the values were obtained:
Format in all cases: cell-based
[1] = tested on: Acinetobacter baumannii ATCC 19606; conditions: ATCC 19606
Summary of the method: (§1)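 Read-out was the lowest drug level in agar preventing visible colony growth after 18 to 24 hours at 35° C. Plates held twofold dilutions (0.03–128 μg/mL final), prepared following CLSI. Bacteria were inoculated at 10^4 CFU/dot with a multipoint inoculator.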

[2] = tested on: Escherichia coli ATCC 25922; conditions: ATCC 25922
Summary of the method: as §1

[3] = tested on: Pseudomonas aeruginosa ATCC 27853; conditions: ATCC 27853
Summary of the method: as §1

[4] = tested on: Staphylococcus epidermidis ATCC 12228; conditions: ATCC 12228
Summary of the method: as §1

[5] = tested on: Klebsiella pneumoniae ATCC BAA-2146 (NDM-1); test: Antibacterial activity, MIC by dish double dilution method; conditions: ATCC BAA-2146
Summary of the method: as §1

[6] = Nephrotoxicity test, renal cytotoxicity by MTT method; conditions: African green monkey
Description: African green monkey kidney cells (Vero cells) were cultured in MEM medium (Hyclone), 10% fetal calf serum (Invitrogen) was added before use, cultured at 37° C. under 5% CO2.
Experiment was carried out using MTT method. After digestion, cells in logarithmic growth phase were counted, then the cells were inoculated in a 96-well culture plate. After incubation for 24 h to be adherent, cells were treated with a concentration gradient of a compound of the invention (e.g., a compound prepared in the Embodiments) and the controls. After 72 h, the culture solution was removed, 100 uL of MTT reagent at a concentration of 0.5 mg/ml was added, the medium was removed after incubating for 3 hours in a 37° C. incubator. Add 150 μL DMSO solvent to each well, mix for 3 min, after which the absorbance at 570 nm (A) was measured with a microplate reader.
Cell viability %=(Adosed cell−Abackground)/(Acontrol cell−Abackground)×100%. The average value of 3 parallel wells was taken for each detection point, and the inhibition curve was drawn to calculate the IC50 value.
The African green monkey kidney cells (Vero cells) used in the experiment were from the Cell Resource Center of the Institute of Basic Medicine, Chinese Academy of Medical Sciences.

Row | SMILES | MIC A. baumannii ATCC 19606 [1] | MIC E. coli ATCC 25922 [2] | MIC P. aeruginosa ATCC 27853 [3] | MIC S. epidermidis ATCC 12228 [4] | MIC K. pneumoniae ATCC BAA-2146 (NDM-1) [5] | IC50 at 72 h [6]
1 | CCC[C@@H]1NC(=O)[C@@H](CC(C)C)NC(=O)[C@H](CCN)NC(=O)[C@@H](NC(=O)[C@H](CCN)NC(=O)[C@@H](NC(=O)[C@H](CCN)NC(=O)CCCC[C@@H](C)CC)[C@@H](C)O)CCNC(=O)[C@H]([C@@H](C)O)NC(=O)[C@H](CCN)NC(=O)[C@H](CCN)NC1=O [Compound 73, (S)-6-methyloctanoyl-Dab-Thr-Dab-ring(4-10)[Dab-Dab-D-Leu-Nva-Dab-Dab-Thr]] (X2-[Dab]T[Dab][Dab][Dab][dL][Nva][Dab][Dab]T; lactam 4-C) | 1 µg/mL (≈ 0.865 µM) | 1 µg/mL (≈ 0.865 µM) | 1 µg/mL (≈ 0.865 µM) | 128 µg/mL (≈ 111 µM) | 1 µg/mL (≈ 0.865 µM) | 108 ± 9.16 µg/mL (≈ 93.9 µM)
2 | CC[C@H](C)[C@@H]1NC(=O)[C@@H](CC(C)C)NC(=O)[C@H](CCN)NC(=O)[C@@H](NC(=O)[C@H](CCN)NC(=O)[C@@H](NC(=O)[C@H](CCN)NC(=O)CCCCC(C)C)[C@@H](C)O)CCNC(=O)[C@H]([C@@H](C)O)NC(=O)[C@H](CCN)NC(=O)[C@H](CCN)NC1=O [Compound 75, 6-methylheptanoyl-Dab-Thr-Dab-ring(4-10)[Dab-Dab-D-Leu-Ile-Dab-Dab-Thr]] ({Heptanoyl(6-Me)}-[Dab]T[Dab][Dab][Dab][dL]I[Dab][Dab]T; lactam 4-C) | 1 µg/mL (≈ 0.865 µM) | 1 µg/mL (≈ 0.865 µM) | 2 µg/mL (≈ 1.73 µM) | 128 µg/mL (≈ 111 µM) | 1 µg/mL (≈ 0.865 µM) | 199 ± 13.1 µg/mL (≈ 172 µM)
3 | CC(C)CCCCCC(=O)N[C@@H](CCN)C(=O)N[C@H](C(=O)N[C@@H](CCN)C(=O)N[C@H]1CCNC(=O)[C@H]([C@@H](C)O)NC(=O)[C@H](CCN)NC(=O)[C@H](CCN)NC(=O)[C@H](CC(C)C)NC(=O)[C@@H](CC(C)C)NC(=O)[C@H](CCN)NC1=O)[C@@H](C)O [Compound 86, 7-methyloctanoyl-Dab-Thr-Dab-ring(4-10)[Dab-Dab-D-Leu-Leu-Dab-Dab-Thr]] ({Octanoyl(7-Me)}-[Dab]T[Dab][Dab][Dab][dL]L[Dab][Dab]T; lactam 4-C) | 1 µg/mL (≈ 0.855 µM) | 1 µg/mL (≈ 0.855 µM) | 2 µg/mL (≈ 1.71 µM) | 64 µg/mL (≈ 54.7 µM) | 1 µg/mL (≈ 0.855 µM) | 87 ± 6.98 µg/mL (≈ 74.4 µM)
4 | CC(C)CCCCC(=O)N[C@@H](CCN)C(=O)N[C@H](C(=O)N[C@@H](CCN)C(=O)N[C@H]1CCNC(=O)[C@H]([C@@H](C)O)NC(=O)[C@H](CCN)NC(=O)[C@H](CCN)NC(=O)[C@H]([C@@H](C)O)NC(=O)[C@@H](CC(C)C)NC(=O)[C@H](CCN)NC1=O)[C@@H](C)O [Compound 103, 6-methylheptanoyl-Dab-Thr-Dab-ring(4-10)[Dab-Dab-D-Leu-Thr-Dab-Dab-Thr]] ({Heptanoyl(6-Me)}-[Dab]T[Dab][Dab][Dab][dL]T[Dab][Dab]T; lactam 4-C) | 1 µg/mL (≈ 0.875 µM) | 0.5 µg/mL (≈ 0.437 µM) | 0.5 µg/mL (≈ 0.437 µM) | >128 µg/mL | 0.5 µg/mL (≈ 0.437 µM) | 276 ± 17.7 µg/mL (≈ 241 µM)
5 | CC(C)CCCCC(=O)N[C@@H](CCN)C(=O)N[C@H](C(=O)N[C@H](CO)C(=O)N[C@H]1CCNC(=O)[C@H]([C@@H](C)O)NC(=O)[C@H](CCN)NC(=O)[C@H](CCN)NC(=O)[C@H]([C@@H](C)O)NC(=O)[C@@H](Cc2ccccc2)NC(=O)[C@H](CCN)NC1=O)[C@@H](C)O [Compound 116, 6-methylheptanoyl-Dab-Thr-D-Ser-ring(4-10)[Dab-Dab-D-Phe-Thr-Dab-Dab-Thr]] ({Heptanoyl(6-Me)}-[Dab]T[dS][Dab][Dab][dF]T[Dab][Dab]T; lactam 4-C) | 0.25 µg/mL (≈ 0.215 µM) | 0.25 µg/mL (≈ 0.215 µM) | 2 µg/mL (≈ 1.72 µM) | >128 µg/mL | 1 µg/mL (≈ 0.859 µM) | > 500 µg/mL
6 | CC[C@H](C)CCCCC(=O)N[C@@H](CCN)C(=O)N[C@H](C(=O)N[C@@H](CCN)C(=O)N[C@H]1CCNC(=O)[C@H](CC(C)C)NC(=O)[C@H](CCN)NC(=O)[C@H](CCN)NC(=O)[C@H](CC(C)C)NC(=O)[C@@H](Cc2ccccc2)NC(=O)[C@H](CCN)NC1=O)[C@@H](C)O [Compound 127, (S)-6-methyloctanoyl-Dab-Thr-Dab-ring(4-10)[Dab-Dab-D-Phe-Lue-Dab-Dab-Lue]] (X2-[Dab]T[Dab][Dab][Dab][dF]L[Dab][Dab]L; lactam 4-C) | 2 µg/mL (≈ 1.65 µM) | 4 µg/mL (≈ 3.29 µM) | 4 µg/mL (≈ 3.29 µM) | 8 µg/mL (≈ 6.58 µM) | 4 µg/mL (≈ 3.29 µM) | 17.2 ± 2.16 µg/mL (≈ 14.1 µM)

Further lines, with some results ahead:

Row | MIC A. baumannii ATCC 19606 [1] | MIC E. coli ATCC 25922 [2] | MIC P. aeruginosa ATCC 27853 [3] | MIC S. epidermidis ATCC 12228 [4] | MIC K. pneumoniae ATCC BAA-2146 (NDM-1) [5] | SMILES | IC50 at 72 h [6]
7 | 1 µg/mL (≈ 0.876 µM) | 0.5 µg/mL (≈ 0.438 µM) | 2 µg/mL (≈ 1.75 µM) | >128 µg/mL | 0.5 µg/mL (≈ 0.438 µM) | CC(C)CCCCC(=O)N[C@@H](CCN)C(=O)N[C@H](C(=O)N[C@@H](CCN)C(=O)N[C@H]1CCNC(=O)[C@H]([C@@H](C)O)NC(=O)[C@H](CCN)NC(=O)[C@H](CCN)NC(=O)[C@H](C(C)C)NC(=O)[C@@H](CC(C)C)NC(=O)[C@H](CCN)NC1=O)[C@@H](C)O [Compound 76, 6-methylheptanoyl-Dab-Thr-Dab-ring(4-10)[Dab-Dab-D-Leu-Val-Dab-Dab-Thr]] ({Heptanoyl(6-Me)}-[Dab]T[Dab][Dab][Dab][dL]V[Dab][Dab]T; lactam 4-C) | 225 ± 17 µg/mL (≈ 197 µM)
8 | 0.5 µg/mL (≈ 0.438 µM) | 0.5 µg/mL (≈ 0.438 µM) | 1 µg/mL (≈ 0.876 µM) | >128 µg/mL | 0.5 µg/mL (≈ 0.438 µM) | CCC[C@@H]1NC(=O)[C@@H](CC(C)C)NC(=O)[C@H](CCN)NC(=O)[C@@H](NC(=O)[C@H](CCN)NC(=O)[C@@H](NC(=O)[C@H](CCN)NC(=O)CCCCC(C)C)[C@@H](C)O)CCNC(=O)[C@H]([C@@H](C)O)NC(=O)[C@H](CCN)NC(=O)[C@H](CCN)NC1=O [Compound 77, 6-methylheptanoyl-Dab-Thr-Dab-ring(4-10)[Dab-Dab-D-Leu-Nva-Dab-Dab-Thr]] ({Heptanoyl(6-Me)}-[Dab]T[Dab][Dab][Dab][dL][Nva][Dab][Dab]T; lactam 4-C) | 168 ± 12.5 µg/mL (≈ 148 µM)
9 | 2 µg/mL (≈ 1.75 µM) | 1 µg/mL (≈ 0.876 µM) | 1 µg/mL (≈ 0.876 µM) | >128 µg/mL | 0.5 µg/mL (≈ 0.438 µM) | CCCCCCC(=O)N[C@@H](CCN)C(=O)N[C@H](C(=O)N[C@@H](CCN)C(=O)N[C@H]1CCNC(=O)[C@H]([C@@H](C)O)NC(=O)[C@H](CCN)NC(=O)[C@H](CCN)NC(=O)[C@H](CC(C)C)NC(=O)[C@@H](CC(C)C)NC(=O)[C@H](CCN)NC1=O)[C@@H](C)O [Compound 82, heptanoyl-Dab-Thr-Dab-ring(4-10)[Dab-Dab-D-Leu-Leu-Dab-Dab-Thr]] (Heptanoyl-[Dab]T[Dab][Dab][Dab][dL]L[Dab][Dab]T; lactam 4-C) | 216 ± 16.1 µg/mL (≈ 189 µM)
10 | 0.12 µg/mL (≈ 0.102 µM) | 0.25 µg/mL (≈ 0.212 µM) | 2 µg/mL (≈ 1.7 µM) | >128 µg/mL | 0.5 µg/mL (≈ 0.424 µM) | CC[C@H](C)CCCCC(=O)N[C@@H](CCN)C(=O)N[C@H](C(=O)N[C@H](CO)C(=O)N[C@H]1CCNC(=O)[C@H]([C@@H](C)O)NC(=O)[C@H](CCN)NC(=O)[C@H](CCN)NC(=O)[C@H]([C@@H](C)O)NC(=O)[C@@H](Cc2ccccc2)NC(=O)[C@H](CCN)NC1=O)[C@@H](C)O [Compound 115, (S)-6-methyloctanoyl-Dab-Thr-D-Ser-ring(4-10)[Dab-Dab-D-Phe-Thr-Dab-Dab-Thr]] (X2-[Dab]T[dS][Dab][Dab][dF]T[Dab][Dab]T; lactam 4-C) | 160 ± 23.4 µg/mL (≈ 136 µM)
11 | 4 µg/mL (≈ 3.33 µM) | 4 µg/mL (≈ 3.33 µM) | 4 µg/mL (≈ 3.33 µM) | 16 µg/mL (≈ 13.3 µM) | 4 µg/mL (≈ 3.33 µM) | CC(C)CCCCC(=O)N[C@@H](CCN)C(=O)N[C@H](C(=O)N[C@@H](CCN)C(=O)N[C@H]1CCNC(=O)[C@H](CC(C)C)NC(=O)[C@H](CCN)NC(=O)[C@H](CCN)NC(=O)[C@H](CC(C)C)NC(=O)[C@@H](Cc2ccccc2)NC(=O)[C@H](CCN)NC1=O)[C@@H](C)O [Compound 128, 6-methylheptanoyl-Dab-Thr-Dab-ring(4-10)[Dab-Dab-D-Phe-Lue-Dab-Dab-Lue]] ({Heptanoyl(6-Me)}-[Dab]T[Dab][Dab][Dab][dF]L[Dab][Dab]L; lactam 4-C) | 30.1 ± 2.59 µg/mL (≈ 25 µM)
